The numbers were not newly measured in patent publication US6821972B2, “3-heterocyclylpropanohydroxamic acid PCP inhibitors” (Pfizer Inc., priority 2001, dated 2004), which cites them from elsewhere.

Non-standard residues stand in square brackets, D forms with d. Residues, ends and D or L forms follow the SMILES beside them. *: point of attachment. Sta = CC(C)C[C@H](N)[C@@H](O)CC(=O)O; Isovaleryl = CC(C)CC(=O)*

One series relates to keratinocyte migration. Conditions: collagen type I matrix, in vitro.
In series [1] the test system is endothelial cell invasion of basement membrane.

Take `CC(C)CC(=O)N[C@H](C(=O)N[C@H](C(=O)N[C@@H](CC(C)C)[C@@H](O)CC(=O)N[C@@H](C)C(=O)N[C@@H](CC(C)C)[C@@H](O)CC(=O)O)C(C)C)C(C)C` [pepstatin A, reference compound] (Isovaleryl-VV[Sta]A[Sta]-OH): the “inhibition of PCP (in words)” value in the series on PCP is “relatively strong inhibitors”.

With concanavalin A, the “inhibitory to PCP at low concentrations” value in the series with PCP is recorded as “inhibitory at low concentrations”.

As for `CNC(=O)[C@H](Cc1ccc(OC)cc1)NC(=O)[C@@H](CC(=O)NO)CC(C)C` [SC44463], in the series on keratinocyte migration, the “inhibition of keratinocyte migration” value was “completely inhibited”.

In the case of Tris-HCl, in the series with PCP (0.2-0.5M), the “inhibition of PCP activity by buffer” value is listed as “markedly inhibited activity”.

Regarding phosphate, in the series on PCP, the “inhibitory to PCP at concentrations of 1-10 mM” value is recorded as “inhibitory”.

In the case of `N.N.O=S(=O)(O)O` [ammonium sulfate], in the series on PCP, the “inhibitory to PCP at concentrations of 1-10 mM” value is reported as “inhibitory”.

On to `NCCCC[C@H](N)C(=O)O` [lysine], for which the “inhibition of PCP (in words)” value in the series with PCP is “inhibited”.

On to `CC(C)C[C@H](NC(=O)[C@@H](NC(=O)N[C@@H](Cc1ccccc1)C(=O)O)[C@@H]1CCN=C(N)N1)C(=O)N[C@H](C=O)Cc1ccccc1` [chymostatin, reference compound], for which the “inhibition of PCP (in words)” value with PCP is “relatively strong inhibitors”.

`CNC(=O)[C@H](Cc1ccccc1)NC(=O)[C@H](CC(C)C)[C@H](CSc1cccs1)C(=O)NO` [BB94, (2S,3R)-5-methyl-3-{[(1S)-1-(methylcarbamoyl)-2-phenylethyl]carbamoyl}-2-[(2-thienylthio)methyl]hexanohydroxamic acid]: the “inhibition of endothelial cell invasion” value in series [1] is reported as “inhibits endothelial cell invasion of basement membrane”.

With `N=C(N)NCCC[C@H](N)C(=O)O` [arginine], in the series on PCP, the “inhibition of PCP (in words)” value is reported as “inhibited”.

Turning to `CCCCCCCCCCCCOS(=O)(=O)[O-].[Na+]` [SDS, reference compound], in the series with PCP, the “inhibitory to PCP at low concentrations” value is given as “inhibitory at low concentrations”.

Take `O[C@H](CS)[C@H](O)CS` (racemic) [Dithiothreitol, reference compound]: the “inhibitory to PCP at low concentrations” value in the series on PCP is “inhibitory at low concentrations”.

B1: ovostatin: "α2-Macroglobulin, ovostatin, and fetal bovine serum appear to at least partially inhibit PCP activity" (protein, UniProt P20740 37-1473, looked up)
Ovostatin: KEPEPQYVLMVPAVLQSDSPSQVCLQFFNLNQTISVRVVLEYDTINTTIFEKNTTTSNGLQCLNFMIPPVTSVSLAFISFTAKGTTFDLKERRSVMIWNMESFVFVQTDKPIYKPGQSVMFRVVALDFNFKPVQEMYPLIAVQDPQNNRIFQWQNVTSEINIVQIEFPLTEEPILGNYKIIVTKKSGERTSHSFLVEEYVLPKFDVTVTAPGSLTVMDSELTVKICAVYTYGQPVEGKVQLSVCRDFDSYGRCKKSPVCQSFTKDLDTDGCLSHILSSKVFELNRIGYKRNLDVKAIVTEKEQVCNLTATQSISITQVMSSLQFENVDHHYRRGIPYFGQIKLVDKDNSPISNKVIQLFVNNKNTHNFTTDINGIAPFSIDTSKIFDPELSLKALYKTSDQCHSEGWIEPSYPDASLSVQRLYSWTSSFVRIEPLWKDMSCGQKRMITVYYILNTEGYEHINIVNFYYVGMAKGKIVLTGEIKVNIQADQNGTFMIPLVVNEKMAPALRLLVYMLHPAKELVADSVRFSIEKCFKNKVQLQFSEKQMLTTSNVSLVIEAAANSFCAVRAVDKSMLLLKSETELSAETIYNLHPIQDLQGYIFNGLNLEDDPQDPCVSSDDIFHKGLYYRPLTSGLGPDVYQFLRDMGMKFFTNSKIRQPTVCTRETVRPPSYFLNAGFTASTHHVKLSAEVAREERGKRHILETIREFFPETWIWDIILINSTGKASVSYTIPDTITEWKASAFCVEELAGFGMSVPATLTAFQPFFVDLTLPYSIIHGEDFLVRANVFNYLNHCIKINVLLLESLDYQAKLISPEDDGCVCAKIRKSYVWNIFPKGTGDVLFSITAETNDDEACEEEALRNIRIDYRDTQIRALLVEPEGIRREETQNFLICMKDDVISQDVAIDLPTNVVEGSPRPSFSVVGDIMGTAIQNVHQLLQMPFGNGEQNMVLFAPNIYVLDYLDKTRQLSEDVKSKTIGYLVSGYQKQLSYKHPDGSYSTFGIRDKEGNTWLTAFVYKSFAEASRFIYIDDNVQAQTLIWLATKQKTDGCFQSTGILVNNAMKGGVENELSLSAYITIALLEAGHSMSHTVIRNAFYCLETASEKNITDIYTQALVAYAFCLAGKAEICESFLRELQKSAKEVDGSKYWEQNQRSAPEKSHLLDHVQSTDVEITSYVLLALLYKPNRSQEDLTKASAIVQWIIRQQNSYGGFASMQDTVVALQALAAYGAATYNSVTQNVIKINSKNTFEKVFTVNNENRLLLQQTPLPQVPGKYSLTVNGTGCVLIQTALRYNIHLPEGAFGFSLSVQTSNASCPRDQPGKFDIVLISSYTGKRSSSNMVIIDVKMLSGFVPVKSSLDQLIDDHTVMQVEYKKNHVLLYLGNILQKRRKEVTFSVEQDFVVTHPKPAPVQIYDYYETEEYAVAEYMSLCRGVVEEMG
In the case of B1, the “inhibition of PCP (in words)” value in the series with PCP is on record as “at least partially inhibit”.

B2: α2-Macroglobulin: "α2-Macroglobulin, ovostatin, and fetal bovine serum appear to at least partially inhibit PCP activity" (protein, UniProt P01023 24-1474, looked up)
Alpha-2-macroglobulin: SVSGKPQYMVLVPSLLHTETTEKGCVLLSYLNETVTVSASLESVRGNRSLFTDLEAENDVLHCVAFAVPKSSSNEEVMFLTVQVKGPTQEFKKRTTVMVKNEDSLVFVQTDKSIYKPGQTVKFRVVSMDENFHPLNELIPLVYIQDPKGNRIAQWQSFQLEGGLKQFSFPLSSEPFQGSYKVVVQKKSGGRTEHPFTVEEFVLPKFEVQVTVPKIITILEEEMNVSVCGLYTYGKPVPGHVTVSICRKYSDASDCHGEDSQAFCEKFSGQLNSHGCFYQQVKTKVFQLKRKEYEMKLHTEAQIQEEGTVVELTGRQSSEITRTITKLSFVKVDSHFRQGIPFFGQVRLVDGKGVPIPNKVIFIRGNEANYYSNATTDEHGLVQFSINTTNVMGTSLTVRVNYKDRSPCYGYQWVSEEHEEAHHTAYLVFSPSKSFVHLEPMSHELPCGHTQTVQAHYILNGGTLLGLKKLSFYYLIMAKGGIVRTGTHGLLVKQEDMKGHFSISIPVKSDIAPVARLLIYAVLPTGDVIGDSAKYDVENCLANKVDLSFSPSQSLPASHAHLRVTAAPQSVCALRAVDQSVLLMKPDAELSASSVYNLLPEKDLTGFPGPLNDQDNEDCINRHNVYINGITYTPVSSTNEKDMYSFLEDMGLKAFTNSKIRKPKMCPQLQQYEMHGPEGLRVGFYESDVMGRGHARLVHVEEPHTETVRKYFPETWIWDLVVVNSAGVAEVGVTVPDTITEWKAGAFCLSEDAGLGISSTASLRAFQPFFVELTMPYSVIRGEAFTLKATVLNYLPKCIRVSVQLEASPAFLAVPVEKEQAPHCICANGRQTVSWAVTPKSLGNVNFTVSAEALESQELCGTEVPSVPEHGRKDTVIKPLLVEPEGLEKETTFNSLLCPSGGEVSEELSLKLPPNVVEESARASVSVLGDILGSAMQNTQNLLQMPYGCGEQNMVLFAPNIYVLDYLNETQQLTPEIKSKAIGYLNTGYQRQLNYKHYDGSYSTFGERYGRNQGNTWLTAFVLKTFAQARAYIFIDEAHITQALIWLSQRQKDNGCFRSSGSLLNNAIKGGVEDEVTLSAYITIALLEIPLTVTHPVVRNALFCLESAWKTAQEGDHGSHVYTKALLAYAFALAGNQDKRKEVLKSLNEEAVKKDNSVHWERPQKPKAPVGHFYEPQAPSAEVEMTSYVLLAYLTAQPAPTSEDLTSATNIVKWITKQQNAQGGFSSTQDTVVALHALSKYGAATFTRTGKAAQVTIQSSGTFSSKFQVDNNNRLLLQQVSLPELPGEYSMKVTGEGCVYLQTSLKYNILPEKEEFPFALGVQTLPQTCDEPKAHTSFQISLSVSYTGSRSASNMAIVDVKMVSGFIPLKPTVKMLERSNHVSRTEVSSNHVLIYLDKVSNQTLSLFFTVLQDVPVRDLKPAIVKVYDYYETDEFAIAEYNAPCSKDLGNA
On to B2, for which, in the series on PCP, the “inhibition of PCP (in words)” value is recorded as “at least partially inhibit”.
